Laboratory results: US20260217732A1, “WRN INHIBITOR” (SUZHOU PUHE BIOPHARMA CO., LTD., priority 2022, published 2026)

Legend:
[1] = tested on: SW48 colorectal cancer cells; assay: 2D antiproliferation on MSI-H SW48 cells, CTG, 5 days; type: cell-based; conditions: Homo sapiens, 120 h; SW48 MSI-H, 5 days
Procedure, shortened: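 MSI-H SW48 colorectal cells in RPMI1640 with 10% FBS exposed to graded compound concentrations for 5 days at 37 °C, 5% CO2. Viability read as CellTiter-Glo ATP luminescence after 30 min.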

[2] = Caco-2 membrane permeability assay; type: in vitro ADME; conditions: human
Method: Membrane Permeability Evaluation Experiments: Caco-2 Assays
The molecules of the present disclosure were evaluated for their membrane permeability. […] Data would be used for apparent permeability (Papp).
wherein VA is the volume of the receptor pore (unit: mL), Area is the surface area of the membrane (0.143 cm^2 for Transwell-96 well permeable scaffolds), and time is the total transport time (unit: seconds).

[3] = tested on: HT-29 colorectal cancer cells; assay: 2D antiproliferation on MSS HT-29 cells, CTG, 5 days; type: cell-based; conditions: Homo sapiens, 120 h, HT-29 MSS
Procedure, shortened: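 HT-29 (MSS) colorectal cells in McCoy's 5A with 10% FBS were exposed to a range of compound concentrations for 5 days at 37° C, 5% CO2. Viability was read as CellTiter-Glo luminescence after 30 min, which reflects ATP content.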

[4] = female, CD1, mouse, in vivo
Method: (§1) Mouse Pharmacokinetic Evaluation Experiment
(§2) CD1 female mice were used as test animals to be administered orally/intravenously (with oral dosage of 10 mg/kg or intravenous dosage of 2 mg/kg).
(§3) Experimental scheme: The oral administration group comprised 3 mice per group (Solvent: 10% Hβ-CD-pH7.4), and the intravenous group comprised 3 mice per group. […] The blood concentration in the plasma of mice was determined using the LC/MS/MS method after the oral or intravenous administration, respectively, and the collected data were calculated using the AB Sciex QTRAP 6500 software.

WRN enzyme = target: T1, WRN enzyme (Homo sapiens, UniProt Q14191); assay: WRN helicase hydrolysis (unwinding) of double-stranded DNA, fluorescence assay; type: biochemical; conditions: 30 min pre-incubation, 60 min reaction
T1 construct: 10 μL (2×) of WRN enzyme solution was added
Method: • The molecules of the present disclosure were tested for their activities on the WRN helicase hydrolysis of double-stranded DNA (Table 1).
A working solution to be tested and a buffer were prepared. The compound to be tested was dissolved in DMSO and subjected to 4× dilution (with 10 μM final concentration as the starting concentration). 0.2 μL of the solution of the compound to be tested was added to the 384-well plate and 10 μL (2×) of WRN enzyme solution was added. The solution was incubated in the dark for 30 minutes. Then, 10 μL of a substrate detection solution containing double-stranded DNA was added to initiate the reaction (the DNA has a length of 19 bp, and labeled with TAMRA and BHQ2 at 3′ and 5′-ends, respectively). The solution was incubated at room temperature for 60 minutes. The inhibitory activities (IC50) against WRN enzyme were calculated based on the change of Ex530/Em590 in the blank group (DMSO) and the compound group.

in vivo = conditions: female, CD1, mouse
Method: as §1, §2, §3

[5] = tested on: SW48 (MSI-H) colorectal cancer tumor cells; assay: In vivo efficacy, SW48 xenograft in nude mice; set-up: species or system BALB/c nude mice; conditions: QD, oral; for TGI: 21 days; for Tumor Volume D 1: day 1; for Tumor volume D 21: day 21
Method: In vivo efficacy experiment in BALB/C nude mice. Details are as follows:
SW48 (MSI-H) colorectal cancer tumor cells were cultured (in an L15 medium with 10% fetal bovine serum), and inoculated into 6-8 week old female BALB/c nude mice (with body weight of about 20 g). All the mice were inoculated subcutaneously. The mice were raised in an SPF-grade experimental environment, and all the mice were free to take commercially certified standard diets. When the tumors grew to an average volume of about 160 mm^3 in mice, the test compound was orally administered daily. […] The tumor volume was measured with a two-dimensional caliper three times a week, and the animals were weighed every day. […] The volume calculation formula is: V=1/2a*b^2, where a represents the long diameter of the tumor and b represents the short diameter of the tumor.

[6] = Caco-2, apical pH 6.5, basolateral pH 7.4

T1 sequence (Q14191 whole entry): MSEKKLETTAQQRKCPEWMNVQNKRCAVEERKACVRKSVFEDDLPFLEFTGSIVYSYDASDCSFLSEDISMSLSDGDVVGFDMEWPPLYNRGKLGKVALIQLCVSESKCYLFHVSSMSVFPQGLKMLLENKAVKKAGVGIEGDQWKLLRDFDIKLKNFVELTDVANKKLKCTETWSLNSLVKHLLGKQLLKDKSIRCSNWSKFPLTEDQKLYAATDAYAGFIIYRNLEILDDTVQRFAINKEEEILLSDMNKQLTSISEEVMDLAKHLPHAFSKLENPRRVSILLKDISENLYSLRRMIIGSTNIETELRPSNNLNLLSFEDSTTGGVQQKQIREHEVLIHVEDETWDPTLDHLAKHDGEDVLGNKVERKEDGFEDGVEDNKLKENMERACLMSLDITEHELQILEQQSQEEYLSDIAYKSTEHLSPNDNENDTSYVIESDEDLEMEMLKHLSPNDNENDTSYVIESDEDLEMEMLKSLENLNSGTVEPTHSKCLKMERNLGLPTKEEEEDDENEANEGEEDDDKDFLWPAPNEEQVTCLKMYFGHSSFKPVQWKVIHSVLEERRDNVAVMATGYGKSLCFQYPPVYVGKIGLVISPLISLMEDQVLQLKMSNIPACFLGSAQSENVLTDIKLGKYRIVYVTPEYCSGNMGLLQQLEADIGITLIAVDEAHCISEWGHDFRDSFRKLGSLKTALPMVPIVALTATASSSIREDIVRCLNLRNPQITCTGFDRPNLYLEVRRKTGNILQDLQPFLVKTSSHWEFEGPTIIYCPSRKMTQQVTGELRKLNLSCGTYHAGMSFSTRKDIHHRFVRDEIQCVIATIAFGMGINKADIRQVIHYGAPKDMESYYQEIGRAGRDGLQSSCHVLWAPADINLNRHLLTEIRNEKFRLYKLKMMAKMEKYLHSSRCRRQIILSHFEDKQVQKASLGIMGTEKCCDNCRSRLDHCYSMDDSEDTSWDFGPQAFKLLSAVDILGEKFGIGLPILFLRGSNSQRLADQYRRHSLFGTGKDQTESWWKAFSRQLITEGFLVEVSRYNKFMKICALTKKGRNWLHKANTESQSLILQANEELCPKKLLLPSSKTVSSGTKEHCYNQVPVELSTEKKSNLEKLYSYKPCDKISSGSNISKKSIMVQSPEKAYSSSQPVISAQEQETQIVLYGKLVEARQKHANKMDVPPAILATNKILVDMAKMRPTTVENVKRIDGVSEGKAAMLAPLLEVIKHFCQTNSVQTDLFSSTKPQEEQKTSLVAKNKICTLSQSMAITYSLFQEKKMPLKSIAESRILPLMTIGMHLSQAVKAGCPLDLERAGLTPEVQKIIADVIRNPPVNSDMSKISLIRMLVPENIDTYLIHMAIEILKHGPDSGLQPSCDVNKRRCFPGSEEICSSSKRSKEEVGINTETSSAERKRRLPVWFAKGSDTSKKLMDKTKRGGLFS

IC50 [1] [nM] | IC50 [3] [µM] | F [4] [%] | IC50 (WRN enzyme) [nM] | AUC(0-t) (in vivo; iv, 2 mg/kg) [ng·h/mL] | C0 (in vivo; iv, 2 mg/kg) [ng/mL] | clearance (in vivo; iv, 2 mg/kg) [mL/min/kg] | half-life (in vivo; iv, 2 mg/kg) [min] | AUC(0-t) (in vivo; po, 10 mg/kg) [ng·h/mL] | Cmax (in vivo; po, 10 mg/kg) [ng/mL] | Tmax (in vivo; po, 10 mg/kg) [min] | half-life (in vivo; po, 10 mg/kg) [min] | SMILES | also measured
37 | – | – | – | – | – | – | – | – | – | – | – | CCc1c(N2CCN(C(=O)c3ncnc(C)c3O)CC2)c(=O)n2nc(-c3cc4c(s3)COC4)nc2n1CC(=O)Nc1ccc(C(F)(F)F)c(C)c1C [P62] | efflux ratio ([2]; Caco-2): 11.6; Papp A→B [2, 6]: 1.54 ×10⁻⁶ cm/s; Papp B→A [2, 6]: 17.9 ×10⁻⁶ cm/s
54 | > 10 | 25 | 1.2 | 1230 | 2840 | 27 | 54 | 1520 | 695 | 60 | 84 | CCc1c(N2CCN(C(=O)c3ncccc3O)CC2)c(=O)n2nc(-c3ccc(CO)s3)nc2n1CC(=O)Nc1ccc(C(F)(F)F)cc1Cl [P9] | –
– | – | 14 | – | 1190 | 2520 | 28.1 | 78 | 801 | 584 | 30 | 84 | CCc1c(N2CCN(C(=O)c3ncccc3O)CC2)c(=O)n2nc(-c3cccnc3)nc2n1CC(=O)Nc1ccc(C(F)(F)F)cc1C [A1, reference compound] | TGI ([5]; 20 mg/kg): 16%; Tumor Volume D 1 ([5]; 20 mg/kg): 162 mm^3; Tumor volume D 21 ([5]; 20 mg/kg): 1672 mm^3; TGI ([5]; 50 mg/kg): 50%; Tumor Volume D 1 ([5]; 50 mg/kg): 160 mm^3; Tumor volume D 21 ([5]; 50 mg/kg): 1065 mm^3
34 | > 10 | 57 | 1.3 | 3150 | 2920 | 10.5 | 72 | 8930 | 4260 | 30 | 84 | CCc1c(N2CCN(C(=O)c3ncnc(C)c3O)CC2)c(=O)n2nc(-c3cc4c(s3)COC4)nc2n1CC(=O)Nc1ccc(C(F)(F)F)c2ccoc12 [P57] | –
